Reference: patent publication US10301308B2, “Azetidine derivatives for tau imaging” (Eli Lilly and Company, priority 2015, dated 2019)

Key:
[1] = target: PHF (tau from Alzheimer's disease donors) (Homo sapiens, UniProt P10636); test: Competition radioligand binding versus [18F]AV-1451 on PHF (Ki determination)
Source text: Purified, soluble PHF is isolated from AD brain tissue using a protocol modified from the procedure described by Jicha, et al. (G. A. Jicha, A. O'Donnell, C. Weaver (1999) “Hierarchical phosphorylation of recombinant tau by the paired-helical filament-associated protein kinase is dependent on cyclic AMP-dependent protein kinase” J Neurochem. 72(1):214). Briefly, AD cortex is homogenized using a handheld Kinematica Polytron, followed by high pressure batch—gas expansion using a Parr Cell disruption bomb. Crude homogenate is centrifuged at 28 kg to pellet cell debris. Soluble PHF is isolated from the supernatant by affinity chromatography over an Affigel-10 column on which the tau antibody MCI, which recognizes a pathological conformation of tau, has been immobilized (G. A. Jicha, R. Bowser, I. G. Kazam (1997), “Alz-50 and MC-1, a new monoclonal antibody raised to paired helical filaments, recognize conformational epitopes on recombinant tau” J Neurosci Res. 48(2): 12.)
The IC50 (i.e. the molar concentration of competing ligand which reduces the specific binding of a radioligand by 50%) for the unlabeled compound is determined by competition radioligand binding, in which the binding of [18F]AV-1451 to PHF is competed with unlabeled compound at various concentrations. […]

[2] = Mouse PET/CT time activity curves; type: in vivo, CD-1 wild type mice; conditions: mouse PET/CT time activity curves
Protocol: Dynamic Micro-Positron Emission Tomography (mPET) images are obtained from CD-1 wild type mice using 3-(3-[18F]-fluoroazetidin-1-yl)-8-methylbenzo[4,5]imidazo[1,2-a]pyridine. Micro-Computed Tomography (mCT) of each subject is used as anatomical reference for image analysis. Biodistribution of the tracer in brain, muscle, bone, liver, and kidney is assessed by generating Time Activity Curves (TAC) using the fused mPET/mCT images. An INVEON multimodality scanner (Siemens, Germany) is used for mPET/mCT. All animal work is performed in accordance with the University of Sciences Institutional Animal Care & Use Committee-approved procedures.
Animals are anesthetized with 3% isoflurane/97% oxygen and are placed on the scanner bed. A short high-resolution CT scan is first performed for anatomical registration, followed by a 120-minute PET scan. During the PET scan a water heating system is placed underneath the bed to help maintain the body temperature. Within 3 minutes after the beginning of the PET acquisition, the [18F]-labeled compound 3-(3-[18F]-fluoroazetidin-1-yl)-8-methylbenzo[4,5]imidazo[1,2-a]pyridine is administered to the animals via tail vein injection (250 uCi in a total volume of 200 uL saline). A PET image is generated for each minute of the acquisition time. Uptake of the tracer is obtained by visually drawing regions of interest based on the fused PET/CT images, and the corresponding activity values are determined using the INVEON Research Workplace software (Siemens, Germany). All values are represented as percent injected dose per gram (% ID/g).
The mouse PET/CT time activity curves of 3-(4-(2-[18F]-fluoroethyl)piperidin-1-yl)-8-methoxybenzo[4,5]imidazo[1,2-a]pyridine (T821) (See FIG. 9) and of 3-(4-[18F]-fluoropiperidin-1-yl)-8-methoxybenzo[4,5]imidazo[1,2-a]pyridine (T798) (See FIG. 10) are obtained as described in Assay Example 7 (T821 and T798 are recited in US2011/0182812). […] Therefore, when imaging with T821 and/or T798, the undesirable non-tau PET signals from the skull bones could interfere with desired tau signals from the brain cortex. Thus, in addition to the lack of selectivity for T821 and T798, these compounds would further represent poor candidates for human brain tau PET tracers because of the interfering radioactivity signal from bone. […] The advantageous properties of Compound 8 are useful to provide enhanced tau PET imaging in humans. This combination of critical properties was not known and could not have been predicted from existing tau imaging compounds.

[3] = test system: native tau aggregates vs native β-amyloid aggregates in human brain sections; test: Autoradiography selectivity towards tau versus β amyloid in AD human brain tissue; type: binding; conditions: for selectivity ratio for Tau:Aβ: 5 Tau+Aβ+ and 2 Tau-Aβ+ brain specimens; for grey matter to white matter (GM/WM) signal ratio: autoradiography, Tau+Aβ+ brain specimens; for binding sites observed in autoradiography: human brain sections Groups A, B, C
Source text: Based on the anti-tau and anti-amyloid immunostaining results of brain sections, three groups of human brain sections are selected for autoradiography experiments to determine the native tau-binding selectivity of 3-(3-[18F]-fluoroazetidin-1-yl)-8-methylbenzo[4,5]imidazo[1,2-a]pyridine. Group A are tau-rich AD brain slices (labeled as Tau+Aβ+), Group B are tau-poor AD brain slices (marked as Tau-Aβ+), and Group C are Tau-Aβ− normal brain slices. […] The human AD brain sections in Group B are #33562, #32656, #33998, #35682, and #33563. The normal human brain sections in group C are #29092 and #32566. Tissue slices from the same donors are used to calculate selectivity for all three compounds for testing according to Assay Example 5. Autoradiography is performed for each of these three groups of brains on adjacent 10 μm sections with the amyloid tracer [18F]W372 to quantify the β-amyloid burden. [18F]W372 is a selective amyloid binding tracer discovered by Siemens and evaluated under IND 105173. Sections are covered with 0.5 ml of 3-(3-[18F]-fluoroazetidin-1-yl)-8-methylbenzo[4,5]imidazo[1,2-a]pyridine (in 2.5:2.5:95 DMSO:EtOH:1×PBS, about 20 μCi/slide) and incubated for 1.5 hrs. Then successive washing cycles (1 min PBS, 2 min 30% EtOH/PBS, 2 min 70% EtOH/PBS, 1 min PBS) are employed to remove any unbound tracer. The sections are air dried, placed on a phosphorimaging plate (Fuji IP plate), and exposed overnight. The IP plate is read using a GE Healthcare Life Sciences Typhoon FLA 7000 Phosphorimager. The signal intensity of the grey matter is measured using Fujifilm Multi Gauge software. After subtracting the background signal (signal in the cortex region of Group C), the signal of individual sections of Group A and B are normalized with corresponding signal from autoradiography of the respective adjacent sections with [18F]W372. The calculations are based on Group B brain sections #32656 and #33998, which have undetectable tau pathology by immunohistochemistry. The normalized signal for 3-(3-[18F]-fluoroazetidin-1-yl)-8-methylbenzo[4,5]imidazo[1,2-a]pyridine in Group B brain sections is the relative signal level of 3-(3-[18F]-fluoroazetidin-1-yl)-8-methylbenzo[4,5]imidazo[1,2-a]pyridine to [F-18]W372 resulting from binding to native β-amyloid aggregates. The binding level of 3-(3-[18F]-fluoroazetidin-1-yl)-8-methylbenzo[4,5]imidazo[1,2-a]pyridine to native tau-aggregates in Group A sections is estimated by subtracting the amount of the total signal attributable to binding to 3-amyloid (calculated by multiplying the total signal from [18F]W372 binding to β-amyloid in the adjacent section by the relative signal of 3-(3-[18F]-fluoroazetidin-1-yl)-8-methylbenzo[4,5]imidazo[1,2-a]pyridine to [18F]W372 determined from the Group B sections). The resulting difference is then divided by the signal attributable to binding to β-amyloid to estimate the selectivity of 3-(3-[18F]-fluoroazetidin-1-yl)-8-methylbenzo[4,5]imidazo[1,2-a]pyridine. […] The selectivity of 3-(3-[18F]-fluoroazetidin-1-yl)-8-methylbenzo[4,5]imidazo[1,2-a]pyridine binding to native tau aggregates vs. binding native β-amyloid aggregates is reflected by the ratio of Group A (Tau+Aβ+) signal to the signal of the brain sections #32656 and #33998.

[4] = test system: tau protein; test: Clinical PET imaging of tau protein in the brain (SUVr); type: in vivo, human; conditions: AD subjects vs healthy controls
Protocol: (§1) Clinical evaluation of 3-(3-[18F]-Fluoroazetidin-1-yl)-8-methylbenzo[4,5]imidazo[1,2-a]pyridine (Compound 8) as a PET radioligand for imaging tau protein deposition in patients with AD or other neurodegenerative disorders is conducted in healthy volunteers. AD patients, or Chronic Traumatic Encephalopathy (CTE) subjects, by completion of one or more PET scans with Compound 8. Dynamic PET imaging is acquired on a Siemens ECAT EXACT HR+ over 150 minutes following Compound 8 or [18F]AV-1451 injection (0-60 and 90-150 minute imaging segments). Compound 8 or [18F]AV-1451 scans are acquired similarly in two imaging sessions. A brain MRI is also obtained. PET and MRI images are aligned and normalized, and ATLAS-based volumes of interest (VOI) are applied to the dynamic PET series. Compound 8 or [18F]AV-1451 are evaluated in terms of kinetic profile as well as target region to cerebellum standardized uptake value ratio (SUVr between 100-120 min) between healthy volunteers and AD or CTE subjects.

[5] = Clinical PET kinetic profile: brain uptake, washout, metabolism; type: in vivo, human; conditions: human subjects, dynamic PET
Protocol: as §1

PHF (tau from Alzheimer's disease donors), sequence (P10636 623-695 limits assumed): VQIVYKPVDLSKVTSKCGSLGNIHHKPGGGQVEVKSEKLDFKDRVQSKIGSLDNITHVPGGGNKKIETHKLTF

Ki ([1]; tau obtained from donors with Alzheimer's disease, from IC50 by Cheng-Prusoff) | peak brain uptake [5] | Kd ([1]; value used in the Cheng-Prusoff equation, read-out: Kd, dissociation constant of the radioligand) | Compound | bone uptake of radioactivity [2] | selectivity ratio for Tau:Aβ [3] | grey matter to white matter (GM/WM) signal ratio [3] | binding sites observed in autoradiography [3] | uptake in cortical brain regions, AD subjects compared with healthy controls [4]
0.6 nM |  |  | Cc1ccc2nc3cc(N4CC(F)C4)ccn3c2c1 [Compound 4, 3-(3-fluoroazetidin-1-yl)-8-methylbenzo[4,5]imidazo[1,2-a]pyridine] |  |  |  |  | 
 |  |  | COc1ccc2nc3cc(N4CCC([18F])CC4)ccn3c2c1 [Compound T798, 3-(4-[18F]-fluoropiperidin-1-yl)-8-methoxybenzo[4,5]imidazol[1,2-a]pyridine, reference compound] | bone uptake of radioactivity increases with time | approximately 8.4±1.7 | approximately 18.0±3.2 | binds to tau, amyloid, and unidentified binding sites in normal human brain | 
 |  |  | COc1ccc2nc3cc(N4CCC(CC[18F])CC4)ccn3c2c1 [Compound T821, 3-(4-(2-[18F]-fluoroethyl)piperidin-1-yl)-8-methoxybenzo[4,5]imidazo[1,2-a]pyridine, reference compound] | bone uptake of radioactivity increases with time | approximately 2.22±0.45 | approximately 11.7±1.2 | binds to tau, amyloid, and unidentified binding sites in normal human brain | 
 | ~6 SUV | 0.57 nM | [18F]c1ccc(-c2ccc3c(c2)[nH]c2ccncc23)cn1 [[18F]AV-1451, reference compound] |  |  |  |  | Higher uptake
